Source: patent US20120316137A1, “Methods and Compositions for Treating Cancer” (priority 2009, published 2012)
Where “and” joins values, the source holds several entries; their conditions need not be identical. Identical values can stand only once. Entries after “also recorded” stand apart in the source; their conditions may differ.

Columns and labels:
[1] = system: wild-type FLT3 primary blasts; assay: Ex vivo viability of primary AML cells (MTS, 72 h)
[2] = system: FGFR4 signaling in MDA-453 breast cells (Y367C); assay: Signaling (Western immunoblotting), Table 12; conditions: MDA-453, read-out: Signaling IC50 (nM)
[3] = system: MGH-U3 bladder cancer cells, mutant FGFR3b (Y375C); assay: Cell growth assay (72 h); type: cell-based; conditions: MGH-U3; read-out: Cell growth GI50
TRKB = TRKB (Homo sapiens, UniProt Q16620); assay: Kinase assay (RBC)
[4] = system: Phospho-FRS2a in MFE-296 cells; assay: Western immunoblotting; conditions: Homo sapiens, MFE-296, read-out: Phospho-FRS2a IC50 (nM)
[5] = system: FGFR-2 mutant AN3CA endometrial tumor xenograft; assay: AN3CA subcutaneous xenograft (Example 8); conditions: mouse, in vivo
Hec1B cells = assay: Soft agar colony formation assay; type: cell-based; conditions: Homo sapiens, HEC-1B, read-out: Soft Agar IC50 (nM)
Protocol: (§1) The soft agar assay was performed using the CytoSelect 96-Well Cell Transformation Assay (Cell Biolabs, San Diego, Calif.). Briefly, cells were resuspended in 0.08% agar and plated on 0.06% agar in 96-well plates. […] Cells were either stained with iodonitrotetrazoliumchloride (Sigma, St. Louis, Mo.) or solubilized and quantified with CyQuant Dye according to the manufacturer's protocol. “ND” indicated not determined.

SNU16 cells = assay: Soft agar colony formation assay; type: cell-based; conditions: Homo sapiens, SNU-16, read-out: Soft Agar IC50 (nM)
Protocol: as §1

SNU1 cells = assay: Soft agar colony formation assay; type: cell-based; conditions: Homo sapiens, SNU1, read-out: Soft Agar IC50 (nM)
Protocol: as §1

AN3CA cells = assay: Soft agar colony formation assay; type: cell-based; conditions: Homo sapiens, AN3-CA, read-out: Soft Agar IC50 (nM)
Protocol: as §1

[6] = system: OPM2 multiple myeloma cells, mutant FGFR3 (K650E); assay: cells; conditions: Homo sapiens, OPM-2, read-out: Cell growth GI50 (nM)
wtFGFR2 RL95 cells = assay: Cell growth assay (72 h); type: cell-based
MV4-11 cells (FLT3-ITD) = assay: Cell viability assay (72 h); conditions: Homo sapiens, MV4-11, 72 h, read-out: Cell viability IC50 (nM)
JAK2 = JAK2 (Homo sapiens, UniProt O60674); assay: Kinase assay (RBC)
[7] = system: Phospho-FRS2a in KatoIII cells; assay: Western immunoblotting; conditions: Homo sapiens, KATO III, read-out: Phospho-FRS2a IC50 (nM)
[8] = system: MFE-296 endometrial cancer cells (FGFR2 N549K); assay: Cell growth assay (72 h); type: cell-based; conditions: Homo sapiens
[9] = system: FGFR3 signaling in MGH-U3 bladder cells (Y375C); assay: Signaling (Western immunoblotting), Table 12; conditions: read-out: Signaling IC50 (nM)
[10] = system: Phospho-Erk1/2 in RL95 cells; assay: Western immunoblotting; conditions: read-out: Phospho-Erk1/2 IC50 (nM)
[11] = system: MFE-296 endometrial cancer cell line; assay: Combination cell growth assay (Chou and Talalay); type: cell-based; conditions: Homo sapiens, MFE-296, read-out: 1×EC50 concentration
[12] = system: Ba/F3 cells expressing BCR-ABL^T315I; assay: Ba/F3 subcutaneous tumor model
K562 CML leukemia cells = assay: Cellular proliferation assay; conditions: Homo sapiens
wtFGFR2 SNU1 cells = assay: Cell growth assay (72 h); type: cell-based; conditions: Homo sapiens
P-FRS2a in OPM2 cells = assay: Western immunoblotting; conditions: Homo sapiens, OPM-2, read-out: IC50 for P-FRS2a
[13] = system: FGFR2 signaling in AN3CA endometrial cells (N549K); assay: Signaling (Western immunoblotting), Table 12; conditions: Homo sapiens, AN3-CA, read-out: Signaling IC50 (nM)
[14] = system: MV4-11 xenografts (FLT3-ITD); assay: MV4-11 subcutaneous xenograft efficacy; type: in vivo, CB.17 SCID mice
c-MER = c-MER (Homo sapiens, UniProt Q12866); assay: Kinase assay (RBC)
[15] = system: Ba/F3 cells expressing BCR-ABL^T315I; assay: CrkL phosphorylation immunoblot in Ba/F3 cells; conditions: 4 h
[16] = Phase 1 clinical trial: safety
[17] = system: KatoIII gastric cancer cells (FGFR2 Amp/truncate); assay: Cell growth assay (72 h); type: cell-based; conditions: Homo sapiens, KATO III

JAK2, sequence (O60674 849-1124 limits assumed): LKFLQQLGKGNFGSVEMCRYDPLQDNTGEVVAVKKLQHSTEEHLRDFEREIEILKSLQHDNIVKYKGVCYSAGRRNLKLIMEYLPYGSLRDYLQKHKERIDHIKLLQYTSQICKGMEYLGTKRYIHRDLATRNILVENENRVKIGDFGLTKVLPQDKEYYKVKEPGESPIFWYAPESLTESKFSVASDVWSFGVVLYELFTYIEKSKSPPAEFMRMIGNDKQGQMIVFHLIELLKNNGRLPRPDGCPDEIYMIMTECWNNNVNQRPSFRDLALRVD
TRKB, sequence (Q16620 538-807 limits assumed): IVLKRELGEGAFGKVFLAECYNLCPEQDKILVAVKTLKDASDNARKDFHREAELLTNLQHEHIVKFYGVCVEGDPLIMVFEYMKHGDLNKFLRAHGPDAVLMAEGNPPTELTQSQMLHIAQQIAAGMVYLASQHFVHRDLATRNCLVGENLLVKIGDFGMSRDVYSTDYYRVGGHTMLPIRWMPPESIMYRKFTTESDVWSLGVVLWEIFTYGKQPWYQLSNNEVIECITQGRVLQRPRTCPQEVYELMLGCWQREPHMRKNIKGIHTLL
c-MER, sequence (Q12866 587-858 limits assumed): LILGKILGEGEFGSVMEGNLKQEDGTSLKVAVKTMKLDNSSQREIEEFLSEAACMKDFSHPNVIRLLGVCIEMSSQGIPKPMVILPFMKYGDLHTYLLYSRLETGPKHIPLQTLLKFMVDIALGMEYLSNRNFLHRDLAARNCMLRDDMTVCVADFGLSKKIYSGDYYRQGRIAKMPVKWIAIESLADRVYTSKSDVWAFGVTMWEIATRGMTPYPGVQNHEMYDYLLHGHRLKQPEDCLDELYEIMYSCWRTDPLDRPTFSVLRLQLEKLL

For `Cc1ccc(C(=O)Nc2ccc(CN3CCN(C)CC3)c(C(F)(F)F)c2)cc1C#Cc1cnc2cccnn12` [Compound 1, 3-(imidazo[1,2-b]pyridazin-3-ylethynyl)-4-methyl-N-(4-((4-methylpiperazin-1-yl)-methyl)-3-(trifluoromethyl)phenyl)benzamide], the IC50 ([1]; Homo sapiens, 72 h, read-out: IC50, viability) was > 100 nM, the effect on viability ([1]; concentrations tested up to 100 nM, 72 hours) was “no reduction in viability” and the IC50 [2] was 30 nM. The GI50 [3] was 163 nM and 204 nM, the IC50 (TRKB) was 15.1 nM and the IC50 [4] was 2.7 nM. For the same compound, the “inhibition of AN3CA tumor growth” value [5] was 49%, the IC50 (Hec1B cells) was > 1000 nM and the IC50 (SNU16 cells) was 29 nM. For the same compound, the IC50 (SNU1 cells) was > 1000 nM, the IC50 (AN3CA cells) was 23 nM and the GI50 [6] was 120 nM. The GI50 (wtFGFR2 RL95 cells) was 428 nM, the IC50 (MV4-11 cells (FLT3-ITD)) was 2 nM and the IC50 (JAK2) was 169 nM. For the same compound, the IC50 [7] was 34 nM, the GI50 [8] was 72 nM and the IC50 [9] was 40 nM. The IC50 [10] was > 1000 nM, the EC50 [11] was 100 nM and the “% T/C” value ([12]; 10 mg/kg daily oral) was 68%. The “% T/C” value ([12]; 30 mg/kg daily oral) was 20%, the “% T/C” value ([12]; 50 mg/kg daily oral) was 0.9% and the “reduction in mean tumor volume at final measurement compared to start of treatment” value ([12]; 50 mg/kg daily oral) was 96%. For the same compound, the “levels of phosphorylated BCR-ABL and phosphorylated CrkL in tumors” value ([12]; single oral dose 30 mg/kg, 6 hr) was “markedly decreased levels of phosphorylated BCR-ABL and phosphorylated CrkL”, the IC50 (K562 CML leukemia cells) was 3.9 nM and the GI50 (wtFGFR2 SNU1 cells) was 500 nM. The IC50 (P-FRS2a in OPM2 cells) was 65 nM, the IC50 [13] was 4 nM and the TGI ([14]; 1 mg/kg oral once daily, 28 days, day 0 to day 24) was 46%. For the same compound, the tumor response ([14]; 10 or 25 mg/kg, 31-day follow up) was “complete and durable tumor regression”, the IC50 (c-MER) was 406 nM and the “effect on CrkL phosphorylation” value [15] was “only compound 1 demonstrated activity against the T315I mutant; also recorded: marked reduction in % pCrkL”. The DLTs ([16]; 45 mg cohort) was “a reversible rash was seen with one patient”, the DLTs ([16]; 60 mg cohort) was “four patients developed reversible pancreatic related DLT (pancreatitis)” and the DLTs ([16]; 2 to 30 mg cohorts) was “No DLTs”. For the same compound, the “drug-related adverse events of any grade: anemia” value ([16]; 57 patients, 2-60 mg) was 12%, the “drug-related adverse events of any grade: lipase increase” value ([16]; 57 patients, 2-60 mg) was 12% and the “drug-related adverse events of any grade: nausea” value ([16]; 57 patients, 2-60 mg) was 12%. The “drug-related adverse events of any grade: rash” value ([16]; 57 patients, 2-60 mg) was 12%, the “drug-related adverse events of any grade: thrombocytopenia” value ([16]; 57 patients, 2-60 mg) was 25% and the “maximum tolerated dose (MTD)” value ([16]; single daily oral dose) was 45 mg. The GI50 [17] was 7 nM.
